In PubChem BioAssay (NCI):
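Exposure lasted 48 hours, with cells grown in 96-well plates and compounds tested at five concentrations. Here, GI50 denotes the concentration required for 50% inhibition of growth. TGI: total growth inhibition.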

Experiments:
Assay in all cases: inhibition of tumour cell growth, NCI panel, 48 h
HOP-62 NSCLC = system: HOP-62 NSCLC
SF-268 CNS = system: SF-268 CNS
RXF 393 renal = system: RXF 393 renal
HT29 colon = system: HT29 colon
EKVX NSCLC = system: EKVX NSCLC
NCI-H522 lung = system: NCI-H522 lung
SK-MEL-2 melanoma = system: SK-MEL-2 melanoma
SN12C renal = system: SN12C renal
CCRF-CEM leukemia = system: CCRF-CEM leukemia
NCI-H23 lung = system: NCI-H23 lung
TK-10 renal = system: TK-10 renal
ACHN renal = system: ACHN renal
OVCAR-4 ovarian = system: OVCAR-4 ovarian
HS 578T breast = system: HS 578T breast
HCT-15 colon = system: HCT-15 colon
MOLT-4 leukemia = system: MOLT-4 leukemia
NCI-H226 lung = system: NCI-H226 lung
NCI-H460 lung = system: NCI-H460 lung
SW-620 colon = system: SW-620 colon
UACC-257 melanoma = system: UACC-257 melanoma
SNB-75 CNS = system: SNB-75 CNS
SK-MEL-28 melanoma = system: SK-MEL-28 melanoma
K-562 leukemia = system: K-562 leukemia
U251 CNS = system: U251 CNS
KM12 colon = system: KM12 colon
MCF7 breast = system: MCF7 breast
HOP-92 NSCLC = system: HOP-92 NSCLC
MALME-3M melanoma = system: MALME-3M melanoma
T-47D breast = system: T-47D breast
SK-OV-3 ovarian = system: SK-OV-3 ovarian
COLO 205 colon = system: COLO 205 colon
SF-539 CNS = system: SF-539 CNS
OVCAR-3 ovarian = system: OVCAR-3 ovarian
HCC-2998 colon = system: HCC-2998 colon
BT-549 breast = system: BT-549 breast
OVCAR-5 ovarian = system: OVCAR-5 ovarian
786-0 renal = system: 786-0 renal
OVCAR-8 ovarian = system: OVCAR-8 ovarian
SK-MEL-5 melanoma = system: SK-MEL-5 melanoma
NCI/ADR-RES ovarian = system: NCI/ADR-RES ovarian
HL-60(TB) leukemia = system: HL-60(TB) leukemia
SF-295 CNS = system: SF-295 CNS
SNB-19 CNS = system: SNB-19 CNS
PC-3 prostate = system: PC-3 prostate
A549 NSCLC = system: A549 NSCLC
DU-145 prostate = system: DU-145 prostate
MDA-MB-468 breast = system: MDA-MB-468 breast
HCT-116 colon = system: HCT-116 colon
CAKI-1 renal = system: CAKI-1 renal
RPMI-8226 leukemia = system: RPMI-8226 leukemia
IGROV1 ovarian = system: IGROV1 ovarian
A498 renal = system: A498 renal
MDA-MB-435 = system: MDA-MB-435
UACC-62 melanoma = system: UACC-62 melanoma
LOX IMVI melanoma = system: LOX IMVI melanoma
M14 melanoma = system: M14 melanoma

COC(=O)C(Cc1ccc(O)c(O)c1)NC(=O)C(CSC/C=C(\C)CCCC(C)CCCC(C)CCCC(C)C)NC(C)=O (configuration not stated)
GI50 (HOP-62 NSCLC): 13.6 µM
TGI (HOP-62 NSCLC): 44.4 µM
GI50 (SF-268 CNS): 26.7 µM
TGI (SF-268 CNS): > 100 µM
GI50 (RXF 393 renal): 16.1 µM
TGI (RXF 393 renal): 44.5 µM
GI50 (HT29 colon): 9.19 µM
TGI (HT29 colon): > 100 µM
GI50 (EKVX NSCLC): 30.3 µM
TGI (EKVX NSCLC): > 100 µM
GI50 (NCI-H522 lung): 1.82 µM
TGI (NCI-H522 lung): 3.6 µM
GI50 (SK-MEL-2 melanoma): 25.1 µM
TGI (SK-MEL-2 melanoma): 90 µM
GI50 (SN12C renal): 30.9 µM
TGI (SN12C renal): > 100 µM
GI50 (CCRF-CEM leukemia): 3.84 µM
TGI (CCRF-CEM leukemia): > 100 µM
GI50 (NCI-H23 lung): 20 µM
TGI (NCI-H23 lung): 64.2 µM
GI50 (TK-10 renal): 22.3 µM
TGI (TK-10 renal): 93.8 µM
GI50 (ACHN renal): 16.5 µM
TGI (ACHN renal): 42.7 µM
GI50 (OVCAR-4 ovarian): 25.6 µM
TGI (OVCAR-4 ovarian): > 100 µM
GI50 (HS 578T breast): 27.7 µM
TGI (HS 578T breast): > 100 µM
GI50 (HCT-15 colon): 4.45 µM
TGI (HCT-15 colon): > 100 µM
GI50 (MOLT-4 leukemia): 3.34 µM
TGI (MOLT-4 leukemia): > 100 µM
GI50 (NCI-H226 lung): 16.2 µM
TGI (NCI-H226 lung): > 100 µM
GI50 (NCI-H460 lung): 4.27 µM
TGI (NCI-H460 lung): > 100 µM
GI50 (SW-620 colon): 11.4 µM
TGI (SW-620 colon): > 100 µM
GI50 (UACC-257 melanoma): 69.2 µM
TGI (UACC-257 melanoma): > 100 µM
GI50 (SNB-75 CNS): 39.3 µM
TGI (SNB-75 CNS): > 100 µM
GI50 (SK-MEL-28 melanoma): 49.5 µM
TGI (SK-MEL-28 melanoma): > 100 µM
GI50 (K-562 leukemia): 8.06 µM
TGI (K-562 leukemia): > 100 µM
GI50 (U251 CNS): 2.84 µM
TGI (U251 CNS): 11.2 µM
GI50 (KM12 colon): 9.05 µM
TGI (KM12 colon): > 100 µM
GI50 (MCF7 breast): 13.5 µM
TGI (MCF7 breast): > 100 µM
GI50 (HOP-92 NSCLC): 11.9 µM
TGI (HOP-92 NSCLC): 30.1 µM
GI50 (MALME-3M melanoma): 49.1 µM
TGI (MALME-3M melanoma): > 100 µM
GI50 (T-47D breast): 7.78 µM
TGI (T-47D breast): 45.3 µM
GI50 (SK-OV-3 ovarian): 17.5 µM
TGI (SK-OV-3 ovarian): 43.2 µM
GI50 (COLO 205 colon): 15.5 µM
TGI (COLO 205 colon): > 100 µM
GI50 (SF-539 CNS): 9.48 µM
TGI (SF-539 CNS): 26.1 µM
GI50 (OVCAR-3 ovarian): 5.79 µM
TGI (OVCAR-3 ovarian): > 100 µM
GI50 (HCC-2998 colon): 18 µM
TGI (HCC-2998 colon): > 100 µM
GI50 (BT-549 breast): 1.36 µM
TGI (BT-549 breast): 3 µM
GI50 (OVCAR-5 ovarian): 29.5 µM
TGI (OVCAR-5 ovarian): > 100 µM
GI50 (786-0 renal): 1.29 µM
TGI (786-0 renal): 2.76 µM
GI50 (OVCAR-8 ovarian): 7.95 µM
TGI (OVCAR-8 ovarian): 32.7 µM
GI50 (SK-MEL-5 melanoma): 28 µM
TGI (SK-MEL-5 melanoma): > 100 µM
GI50 (NCI/ADR-RES ovarian): 33.3 µM
TGI (NCI/ADR-RES ovarian): > 100 µM
GI50 (HL-60(TB) leukemia): 6.67 µM
TGI (HL-60(TB) leukemia): 41.5 µM
GI50 (SF-295 CNS): 18.3 µM
TGI (SF-295 CNS): 43.8 µM
GI50 (SNB-19 CNS): 3.81 µM
TGI (SNB-19 CNS): 48.4 µM
GI50 (PC-3 prostate): 3 µM
TGI (PC-3 prostate): 14.2 µM
GI50 (A549 NSCLC): 11.2 µM
TGI (A549 NSCLC): > 100 µM
GI50 (DU-145 prostate): > 100 µM
TGI (DU-145 prostate): > 100 µM
GI50 (MDA-MB-468 breast): 16.9 µM
TGI (MDA-MB-468 breast): > 100 µM
GI50 (HCT-116 colon): 1.33 µM
TGI (HCT-116 colon): 2.81 µM
GI50 (CAKI-1 renal): 31 µM
TGI (CAKI-1 renal): > 100 µM
GI50 (RPMI-8226 leukemia): 4.06 µM
TGI (RPMI-8226 leukemia): > 100 µM
GI50 (IGROV1 ovarian): 10.7 µM
TGI (IGROV1 ovarian): > 100 µM
GI50 (A498 renal): 30.3 µM
TGI (A498 renal): > 100 µM
GI50 (MDA-MB-435): 41.5 µM
TGI (MDA-MB-435): > 100 µM
GI50 (UACC-62 melanoma): 17.1 µM
TGI (UACC-62 melanoma): 74.8 µM
GI50 (LOX IMVI melanoma): 10.5 µM
TGI (LOX IMVI melanoma): > 100 µM
GI50 (M14 melanoma): 2.78 µM
TGI (M14 melanoma): 12.5 µM
